Assay results: PMC3249170 (Cellular and Molecular Life Sciences: CMLS, 2011)

Molecular target: actomyosin-7a (acto•M7a) (Homo sapiens, UniProt Q13402)
Assay: biochemical

actomyosin-7a (acto•M7a), sequence (Q13402 whole entry, looked up): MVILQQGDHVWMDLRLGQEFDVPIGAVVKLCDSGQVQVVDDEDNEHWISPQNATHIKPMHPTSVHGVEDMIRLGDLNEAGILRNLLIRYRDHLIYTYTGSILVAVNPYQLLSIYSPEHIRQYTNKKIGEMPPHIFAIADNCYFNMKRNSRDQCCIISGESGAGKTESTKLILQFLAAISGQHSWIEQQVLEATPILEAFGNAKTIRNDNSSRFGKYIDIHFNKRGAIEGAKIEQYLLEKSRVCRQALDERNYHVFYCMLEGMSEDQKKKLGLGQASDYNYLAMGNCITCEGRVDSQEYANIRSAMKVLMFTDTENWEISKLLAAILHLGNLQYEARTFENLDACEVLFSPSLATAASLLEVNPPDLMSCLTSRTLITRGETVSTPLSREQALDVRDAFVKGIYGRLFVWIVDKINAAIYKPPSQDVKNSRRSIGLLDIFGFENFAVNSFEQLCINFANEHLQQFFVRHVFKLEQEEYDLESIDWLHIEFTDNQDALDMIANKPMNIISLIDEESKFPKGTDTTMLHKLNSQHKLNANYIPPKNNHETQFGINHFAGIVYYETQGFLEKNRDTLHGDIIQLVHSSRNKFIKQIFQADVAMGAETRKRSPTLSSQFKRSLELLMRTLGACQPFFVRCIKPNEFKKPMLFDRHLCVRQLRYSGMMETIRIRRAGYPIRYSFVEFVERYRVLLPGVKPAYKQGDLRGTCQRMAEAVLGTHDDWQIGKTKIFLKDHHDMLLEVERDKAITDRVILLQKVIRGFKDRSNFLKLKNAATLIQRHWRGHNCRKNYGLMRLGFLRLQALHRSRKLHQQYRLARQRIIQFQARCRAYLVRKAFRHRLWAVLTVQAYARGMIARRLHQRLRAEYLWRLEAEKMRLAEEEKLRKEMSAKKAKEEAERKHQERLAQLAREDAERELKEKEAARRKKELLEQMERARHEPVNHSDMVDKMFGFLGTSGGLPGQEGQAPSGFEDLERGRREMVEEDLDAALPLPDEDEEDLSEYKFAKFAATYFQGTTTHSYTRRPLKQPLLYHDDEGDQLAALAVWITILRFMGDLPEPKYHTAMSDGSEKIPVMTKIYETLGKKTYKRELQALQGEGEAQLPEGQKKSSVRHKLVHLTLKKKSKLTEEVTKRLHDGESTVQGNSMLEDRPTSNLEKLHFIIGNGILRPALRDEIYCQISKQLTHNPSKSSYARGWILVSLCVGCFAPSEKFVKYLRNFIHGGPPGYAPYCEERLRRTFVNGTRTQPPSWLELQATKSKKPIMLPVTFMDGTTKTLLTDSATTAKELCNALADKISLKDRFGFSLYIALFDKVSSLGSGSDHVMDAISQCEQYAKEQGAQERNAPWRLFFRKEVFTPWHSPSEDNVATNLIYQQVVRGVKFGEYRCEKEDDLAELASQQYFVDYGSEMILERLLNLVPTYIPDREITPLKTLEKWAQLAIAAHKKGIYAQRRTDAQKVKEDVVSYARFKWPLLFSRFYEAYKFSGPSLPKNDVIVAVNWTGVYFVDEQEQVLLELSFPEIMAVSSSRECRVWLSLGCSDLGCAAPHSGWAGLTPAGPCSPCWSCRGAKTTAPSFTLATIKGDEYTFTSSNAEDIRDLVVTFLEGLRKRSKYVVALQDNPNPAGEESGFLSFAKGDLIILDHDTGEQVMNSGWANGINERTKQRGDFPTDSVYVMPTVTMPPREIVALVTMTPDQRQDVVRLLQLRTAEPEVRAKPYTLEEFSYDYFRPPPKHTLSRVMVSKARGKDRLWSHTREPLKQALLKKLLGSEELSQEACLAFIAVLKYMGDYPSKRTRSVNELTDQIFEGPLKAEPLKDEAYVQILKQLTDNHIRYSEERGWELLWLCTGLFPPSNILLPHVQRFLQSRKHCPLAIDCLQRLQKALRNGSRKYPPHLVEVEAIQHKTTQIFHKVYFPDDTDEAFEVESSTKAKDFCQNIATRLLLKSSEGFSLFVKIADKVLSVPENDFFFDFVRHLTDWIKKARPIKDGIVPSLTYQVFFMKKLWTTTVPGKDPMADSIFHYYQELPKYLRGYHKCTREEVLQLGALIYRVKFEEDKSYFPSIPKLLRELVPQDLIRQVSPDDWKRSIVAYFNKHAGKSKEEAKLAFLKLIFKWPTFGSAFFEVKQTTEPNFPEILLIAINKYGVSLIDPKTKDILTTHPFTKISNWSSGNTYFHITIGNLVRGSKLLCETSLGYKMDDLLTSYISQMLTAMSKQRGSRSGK

Kd: 681.2 ± 5.63 µM
Compound: Nc1ncnc2c1ncn2[C@@H]1O[C@H](COP(=O)(O)OP(=O)(O)OP(=O)(O)O)[C@@H](O)[C@H]1O [ATP]
